Measured values as given in publication PMC3604040 (Biochemical pharmacology, 2013).
Blank lines part the entries; values can stand above or below the compound they belong to.

Experiments:
[1] = Metabolism and stability of PTI in mouse liver microsomes; type: in vitro ADME; details: 0.5 mg/ml protein
[2] = Metabolism and stability of PTI in rat liver microsomes; type: in vitro ADME; details: 0.5 mg/ml protein
[3] = Metabolism and stability of PTI in human liver microsomes; type: in vitro ADME; details: for metabolite formation in PTI-treated HLMs in the absence of NADPH: 20 min after initiation of the reaction
[4] = Metabolism and stability of PTI in human intestine microsomes; type: in vitro ADME; details: 0.25 mg/ml protein, 37°C
[5] = Metabolism and stability of PTI in human kidney microsomes; type: in vitro ADME; details: 0.25 mg/ml protein, 37°C
[6] = Metabolism and stability of PTI in human lung microsomes; type: in vitro ADME; details: 0.25 mg/ml protein, 37°C
[7] = target: CYP2D6 (Homo sapiens, UniProt P10635); details: recombinant CYP2D6, DFP pre-treated, PTI 2 to 200 µM, 1 h
Chain of CYP2D6 (P10635 whole entry): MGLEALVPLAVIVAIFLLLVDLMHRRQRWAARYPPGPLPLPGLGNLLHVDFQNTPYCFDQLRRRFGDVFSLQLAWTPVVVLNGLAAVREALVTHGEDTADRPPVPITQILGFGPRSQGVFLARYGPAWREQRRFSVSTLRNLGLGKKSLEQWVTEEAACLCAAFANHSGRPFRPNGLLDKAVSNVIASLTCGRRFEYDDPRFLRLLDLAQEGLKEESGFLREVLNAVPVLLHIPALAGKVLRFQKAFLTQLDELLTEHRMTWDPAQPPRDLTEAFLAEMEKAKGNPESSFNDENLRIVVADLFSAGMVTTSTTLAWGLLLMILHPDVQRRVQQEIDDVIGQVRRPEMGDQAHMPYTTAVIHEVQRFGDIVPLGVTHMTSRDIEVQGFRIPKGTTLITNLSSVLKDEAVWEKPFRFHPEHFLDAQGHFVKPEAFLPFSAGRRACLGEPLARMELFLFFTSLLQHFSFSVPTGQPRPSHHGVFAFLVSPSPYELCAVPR

[8] = target: CYP3A4 (Homo sapiens, UniProt P08684); details: recombinant CYP3A4, DFP pre-treated, PTI 2 to 200 µM, 1 h
Chain of CYP3A4 (P08684 whole entry): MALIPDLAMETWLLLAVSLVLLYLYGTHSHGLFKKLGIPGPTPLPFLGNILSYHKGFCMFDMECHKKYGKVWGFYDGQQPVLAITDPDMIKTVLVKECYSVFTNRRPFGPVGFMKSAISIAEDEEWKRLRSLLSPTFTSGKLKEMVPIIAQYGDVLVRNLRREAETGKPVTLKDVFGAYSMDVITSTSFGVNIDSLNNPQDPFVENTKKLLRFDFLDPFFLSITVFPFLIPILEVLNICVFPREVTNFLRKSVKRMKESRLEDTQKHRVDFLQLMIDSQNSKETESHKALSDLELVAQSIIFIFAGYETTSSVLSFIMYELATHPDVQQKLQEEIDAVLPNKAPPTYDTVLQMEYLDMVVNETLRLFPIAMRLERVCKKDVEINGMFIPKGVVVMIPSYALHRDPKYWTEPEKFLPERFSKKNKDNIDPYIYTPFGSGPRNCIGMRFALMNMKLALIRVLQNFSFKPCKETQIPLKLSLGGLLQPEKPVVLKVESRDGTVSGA

[9] = UDP-glucuronic acid, in the presence of DFP, 2 h
[10] = PTI 10 mg/kg oral in corn oil, 3 h post-dosing
[11] = target: T1, UDP-glucuronosyltransferase (UGT 2B7) (Homo sapiens, UniProt P16662)
T1 sequence (P16662 24-529): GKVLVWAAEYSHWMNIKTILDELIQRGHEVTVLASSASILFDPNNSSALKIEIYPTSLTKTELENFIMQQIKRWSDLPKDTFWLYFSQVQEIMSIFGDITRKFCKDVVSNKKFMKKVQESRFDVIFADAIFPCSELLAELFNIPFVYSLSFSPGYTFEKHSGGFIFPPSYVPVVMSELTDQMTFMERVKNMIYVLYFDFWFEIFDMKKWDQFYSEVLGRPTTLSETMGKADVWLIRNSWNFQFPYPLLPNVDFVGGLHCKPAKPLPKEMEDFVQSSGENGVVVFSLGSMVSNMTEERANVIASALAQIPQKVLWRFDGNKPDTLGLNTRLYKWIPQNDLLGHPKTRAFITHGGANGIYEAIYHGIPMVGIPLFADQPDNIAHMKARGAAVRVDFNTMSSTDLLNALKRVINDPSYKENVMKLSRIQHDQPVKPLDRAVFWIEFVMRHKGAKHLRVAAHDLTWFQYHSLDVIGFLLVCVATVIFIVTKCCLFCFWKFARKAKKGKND

[12] = 37°C, NADPH-regenerating solution
[13] = twenty minutes after initiation, PTI 75 µM

SMILES: CCOP(=O)(OCC)OCCc1ccc(OC(=O)Cc2c(C)n(C(=O)c3ccc(Cl)cc3)c3ccc(OC)cc23)cc1 [PTI, Phospho-tyrosol-indomethacin]
- CLint ([1]; 37°C): 172.4 mL/min/g
- t1/2 [1, 12]: 8.0 min
- PTI hydrolyzed to yield IND [1, 13]: 80%
- CLint ([2]; 37°C): 36.9 mL/min/g
- t1/2 [2, 12]: 37.6 min
- PTI hydrolyzed to yield IND [2, 13]: 22%
- CLint ([3]; human liver microsomes, 0.5 mg/ml protein, 37°C): 100.0 mL/min/g
- t1/2 ([3]; human liver microsomes, 0.5 mg/ml protein, 37°C, NADPH-regenerating solution): 13.9 min
- PTI hydrolyzed to yield IND ([3]; human liver microsomes, twenty minutes after initiation, PTI 75 µM, 0.5 mg/ml protein): 52%
- CLint [4]: 210.0 mL/min/g
- t1/2 ([4]; NADPH-regenerating solution): 13.2 min
- CLint [5]: 35.9 mL/min/g
- t1/2 ([5]; NADPH-regenerating solution): 77.3 min
- CLint [6]: 8.0 mL/min/g
- t1/2 ([6]; NADPH-regenerating solution): 348.0 min
- O-demethylation of PTI Vmax [7]: 70.0 pmol/min/ pmol CYP
- O-demethylation of PTI Vmax [8]: 1.5 pmol/min/ pmol CYP
- glucuronidation in HLMs [9]: not glucuronidated
- intact drug in rat plasma [10]: not detected

SMILES: COc1ccc2c(c1)c(CC(=O)O)c(C)n2C(=O)c1ccc(Cl)cc1 [IND, indomethacin, reference compound]
- glucuronidation by UGT 2B7 [11]: capable of catalyzing the glucuronidation of IND

- metabolite formation in PTI-treated HLMs in the absence of NADPH [3]: not detected
SMILES: Cc1c(CC(=O)O)c2cc(O)ccc2n1C(=O)c1ccc(Cl)cc1 [demethyl-IND]

- metabolite formation in PTI-treated HLMs in the absence of NADPH [3]: detected
SMILES: COc1ccc2[nH]c(C)c(CC(=O)O)c2c1 [debenzoyl-IND]
